The record followed here is patent publication US20260317340A1, “COMPOUNDS, COMPOSITIONS, AND METHODS OF TREATING DISORDERS” (Chengdu Anticancer Bioscience, Ltd., priority 2023, published 2026).

The subject of assay [1] is RPE-Neo or RPE-MYC or RPE-MYC expressing an EGFP-Histone 2B fusion protein. Briefly: Phenotypic screening assay: arrest in mitosis, change in DNA content (polyploidy), cell death. The class given is cell-based. The conditions noted are these: 20 nM to 20 μM, 24, 48 or 72 hours. Here is the method:
(§1) Human cancer cell lines were obtained from ATCC and cultured in DMEM (Gibco, Cleveland, TN, USA) supplemented with 5% fetal bovine serum (Gibco), penicillin (100 U/mL)-streptomycin (100 μg/mL) (Gibco, Cat. No. 15140-122), 2 mM L-glutamine (Gibco, 200 mM solution, Cat. No. 25030081), and 1 mM sodium pyruvate (Gibco, 100 mM solution, Cat. No. 11360070) at 37° C. in a humidified incubator that was maintained at 5% CO2.
Screening was conducted as described before (Li et al. 2019). Briefly, RPE-Neo or RPE-MYC or RPE-MYC expressing an EGFP-Histone 2B fusion protein were passaged as batches of 96-well plates, 18-24 hours before exposure to the chemical compounds of the present disclosure at concentrations from 20 nM to 20 μM. At 24, 48 or 72 hours after initiation of treatment, cells were analyzed for either an arrest in mitosis or a change in DNA content by GE IN-Cell Analyzer 2000. MTT assays of cellular proliferation were performed as previously described (Li et al. 2019).
(§2) As set forth in table 2 below, an values of greater than or equal to 1 nM and less than or equal to 1.0 μM is marked “A”; a value greater than 1.00 μM and less than or equal to 10.0 μM is marked “B”; a value greater than 10.0 μM and less than or equal to 30.0 μM is marked “C”; and a value greater than 30.0 μM and less than 1000 μM is marked “D.”

In the next assay the test system is RPE-Neo or RPE-MYC cells. The experiment in a line: MTT assay of cellular proliferation (proliferative arrest). The conditions noted are these: for minimal effective concentration: read-out: Min. Effective conc. for Proliferative arrest (>50%). Type of assay: cell-based. Here is the method:
as §1
Screening was conducted as described before (Li et al. 2019). Briefly, RPE-Neo or RPE-MYC or RPE-MYC expressing an EGFP-Histone 2B fusion protein were passaged as batches of 96-well plates, 18-24 hours before exposure to the chemical compounds of the present disclosure at concentrations from 20 nM to 20 μM. At 24, 48 or 72 hours after initiation of treatment, cells were analyzed for either an arrest in mitosis or a change in DNA content by GE IN-Cell Analyzer 2000. MTT assays of cellular proliferation were performed as previously described (Li et al. 2019). […]
as §2

Setting [2] is: read-out: Min. Effective conc. for Along with Cell Death.
Where [3] appears, read: ≥5%, read-out: Min. Effective conc. for Mitotic Arrest (≥5%).
Where [4] appears, read: ≥5%, read-out: Min. Effective conc. for Polyploidy (≥5%).

Like-named read-outs stand apart in the source and are kept apart here.

Take `Cc1ccc(CN2C(=O)CC(c3nnc(C4CC4)o3)=C(Br)c3scc(C)c32)cc1F` [Compound 1, 8-Bromo-7-(5-cyclopropyl-1,3,4-oxadiazol-2-yl)-4-(3-fluoro-4-methylbenzyl)-3-methyl-4,6-dihydro-5H-thieno[3,2-b]azepin-5-one]: the minimal effective concentration (in assay [1] (setting [2]); in assay [1] (setting [3]); in assay [1] (setting [4]); in the assay with RPE-Neo or RPE-MYC cells) was 0.001 to 1 µM in each case.
With `Cc1ccc(CN2C(=O)CC(c3nnc(C4CC4)o3)=C(Br)c3ccc(OCCOCCOCCOCCOc4ccc5c(c4)N(Cc4ccc(C)c(F)c4)C(=O)CC(c4nnc(C6CC6)o4)=C5Br)cc32)cc1F` [Compound 2, 8,8′-((((Oxybis(ethane-2,1-diyl))bis(oxy))bis(ethane-2,1-diyl))bis(oxy))bis(5-bromo-4-(5-cyclopropyl-1,3,4-oxadiazol-2-yl)-1-(3-fluoro-4-methylbenzyl)-1,3-dihydro-2H-benzo[b]azepin-2-one)], the minimal effective concentration (in assay [1] (setting [2]); in assay [1] (setting [3]); in assay [1] (setting [4]); in the assay with RPE-Neo or RPE-MYC cells) was 1 to 10 µM each time.
As to `Cc1ccc(CN2C(=O)CC(c3nnc(C4CC4)o3)=C(Br)c3ccc(OCCOCCOCCOc4ccc5c(c4)N(Cc4ccc(C)c(F)c4)C(=O)CC(c4nnc(C6CC6)o4)=C5Br)cc32)cc1F` [Compound 3, 8,8′-(((Ethane-1,2-diylbis(oxy))bis(ethane-2,1-diyl))bis(oxy))bis(5-bromo-4-(5-cyclopropyl-1,3,4-oxadiazol-2-yl)-1-(3-fluoro-4-methylbenzyl)-1,3-dihydro-2H-benzo[b]azepin-2-one)], the minimal effective concentration (in assay [1] (setting [2]); in assay [1] (setting [3]); in assay [1] (setting [4]); in the assay with RPE-Neo or RPE-MYC cells) was 1 to 10 µM throughout.
For the compound `COc1ccc(CN2C(=O)CC(c3nnc(C4CC4)o3)=C(Br)c3cccc(F)c32)cc1` [Compound 4, 5-bromo-4-(5-cyclopropyl-1,3,4-oxadiazol-2-yl)-9-fluoro-1-(4-methoxybenzyl)-1,3-dihydro-2H-benzo[b]azepin-2-one], the minimal effective concentration (in assay [1] (setting [2]); in assay [1] (setting [3]); in assay [1] (setting [4]); with RPE-Neo or RPE-MYC cells) was 0.001 to 1 µM in each case.
`COc1ccc(CN2C(=O)CC(c3nnc(C4CC4)o3)=C(Br)c3ccccc32)c(F)c1` [Compound 5, 5-Bromo-4-(5-cyclopropyl-1,3,4-oxadiazol-2-yl)-1-(2-fluoro-4-methoxybenzyl)-1,3-dihydro-2H-benzo[b]azepin-2-one]: the minimal effective concentration (in assay [1] (setting [2]); in assay [1] (setting [3]); in assay [1] (setting [4]); in the assay with RPE-Neo or RPE-MYC cells) was 0.001 to 1 µM each time.
With `CCc1ccc(CN2C(=O)CC(c3nnc(C4CC4)o3)=C(Br)c3ccccc32)cc1` [Compound 6, 5-Bromo-4-(5-cyclopropyl-1,3,4-oxadiazol-2-yl)-1-(4-ethylbenzyl)-1,3-dihydro-2H-benzo[b]azepin-2-one], the minimal effective concentration (in assay [1] (setting [2]); in assay [1] (setting [3]); in assay [1] (setting [4]); in the assay with RPE-Neo or RPE-MYC cells) was 0.001 to 1 µM in each case.
In the case of `COc1ccc(CN2C(=O)CC(c3cnco3)=C(Br)c3ccccc32)cc1` [Compound 7, 5-Bromo-1-(4-methoxybenzyl)-4-(oxazol-5-yl)-1,3-dihydro-21-benzo[b]azepin-2-one], the “Min. Effective conc. for Along with Cell Death” value in assay [1] is “A (greater than or equal to 1 nM and less than or equal to 1.0 μM)”. In addition, in assay [1] (≥5%), the “Min. Effective conc. for Mitotic Arrest (≥5%)” value was “A (greater than or equal to 1 nM and less than or equal to 1.0 μM)”; the “Min. Effective conc. for Polyploidy (≥5%)” value is “A (greater than or equal to 1 nM and less than or equal to 1.0 μM)”. Also, the “Min. Effective conc. for Proliferative arrest (>50%)” value in the assay with RPE-Neo or RPE-MYC cells (>50%) is “A (greater than or equal to 1 nM and less than or equal to 1.0 μM)”.
In the case of `COc1ccc(CN2C(=O)CC(c3ccon3)=C(Br)c3ccccc32)cc1` [Compound 8, 5-Bromo-4-(isoxazol-3-yl)-1-(4-methoxybenzyl)-1,3-dihydro-2H-benzo[b]azepin-2-one], the minimal effective concentration (in assay [1] (setting [2]); in assay [1] (setting [3]); in assay [1] (setting [4]); in the assay with RPE-Neo or RPE-MYC cells) was 0.001 to 1 µM each time.
As to `COc1ccc(CN2C(=O)CC(c3nnc(C)o3)=C(Br)c3ccccc32)cc1` [Compound 9, 5-Bromo-1-(4-methoxybenzyl)-4-(5-methyl-1,3,4-oxadiazol-2-yl)-1,3-dihydro-2H-benzo[b]azepin-2-one], the minimal effective concentration (in assay [1] (setting [2]); in assay [1] (setting [3]); in assay [1] (setting [4]); in the assay on RPE-Neo or RPE-MYC cells) was 0.001 to 1 µM in each case.
As for `COc1ccc(CN2C(=O)CC(c3nnc(N)s3)=C(Br)c3ccccc32)cc1` [Compound 10, 4-(5-Amino-1,3,4-thiadiazol-2-yl)-5-bromo-1-(4-methoxybenzyl)-1,3-dihydro-2H-benzo[b]azepin-2-one], the minimal effective concentration (in assay [1] (setting [2]); in assay [1] (setting [3]); in assay [1] (setting [4]); in the assay with RPE-Neo or RPE-MYC cells) was 0.001 to 1 µM in each case.
`COc1ccc(CN2C(=O)CC(c3ncc(C)o3)=C(Br)c3ccccc32)cc1` [Compound 11, 5-Bromo-1-(4-methoxybenzyl)-4-(5-methyloxazol-2-yl)-1,3-dihydro-2H-benzo[b]azepin-2-one]: the minimal effective concentration (in assay [1] (setting [2]); in assay [1] (setting [3]); in assay [1] (setting [4]); with RPE-Neo or RPE-MYC cells) was 0.001 to 1 µM throughout.
As to `COC(=O)C1=Cc2ccccc2N(Cc2ccc(C)c(F)c2)C(=O)C1` [Compound 12, methyl 1-(3-fluoro-4-methylbenzyl)-2-oxo-2,3-dihydro-1H-benzo[b]azepine-4-carboxylate], the minimal effective concentration (in assay [1] (setting [2]); in assay [1] (setting [3]); in assay [1] (setting [4]); with RPE-Neo or RPE-MYC cells) was 0.001 to 1 µM in each case.
As to `Cc1ccc(CN2C(=O)CC(c3nnc(C4CC4)o3)=Cc3ccccc32)cc1F` [Compound 13, 4-(5-cyclopropyl-1,3,4-oxadiazol-2-yl)-1-(3-fluoro-4-methylbenzyl)-1,3-dihydro-2H-benzo[b]azepin-2-one], the minimal effective concentration (in assay [1] (setting [2]); in assay [1] (setting [3]); in assay [1] (setting [4]); with RPE-Neo or RPE-MYC cells) was 0.001 to 1 µM each time.
Take `COc1ccc(CN2C(=O)CC(c3nnco3)=Cc3ccc(Br)cc32)cc1` [Compound 14, 8-bromo-1-(4-methoxybenzyl)-4-(1,3,4-oxadiazol-2-yl)-1,3-dihydro-2H-benzo[b]azepin-2-one]: the minimal effective concentration (in assay [1] (setting [2]); in assay [1] (setting [3]); in assay [1] (setting [4]); in the assay with RPE-Neo or RPE-MYC cells) was 0.001 to 1 µM each time.
Turning to `COc1ccc(CN2C(=O)CC(c3nnc(C)o3)=Cc3ccc(Br)cc32)cc1` [Compound 15, 8-bromo-1-(4-methoxybenzyl)-4-(5-methyl-1,3,4-oxadiazol-2-yl)-1,3-dihydro-2H-benzo[b]azepin-2-one], the minimal effective concentration (in assay [1] (setting [2]); in assay [1] (setting [3]); in assay [1] (setting [4]); in the assay on RPE-Neo or RPE-MYC cells) was 1 to 10 µM in each case.
For `COc1ccc(CN2C(=O)CC(c3nnc(C)o3)=Cc3ccc(-c4cnn(C)c4)cc32)cc1` [Compound 16, 1-(4-methoxybenzyl)-4-(5-methyl-1,3,4-oxadiazol-2-yl)-8-(1-methyl-1H-pyrazol-4-yl)-1,3-dihydro-2H-benzo[b]azepin-2-one], the minimal effective concentration (in assay [1] (setting [2]); in assay [1] (setting [3]); in assay [1] (setting [4]); in the assay on RPE-Neo or RPE-MYC cells) was 0.001 to 1 µM in each case.
In the case of `COc1ccc(CN2C(=O)CC3(c4ncc(C)o4)CC3c3ccc(Br)cc32)cc1` (centres unmarked) [Compound 17, 6-bromo-4-(4-methoxybenzyl)-1a-(5-methyloxazol-2-yl)-1a,2,4,8b-tetrahydrobenzo[b]cyclopropa[d]azepin-3(1H)-one], the minimal effective concentration (in assay [1] (setting [2]); in assay [1] (setting [3]); in assay [1] (setting [4]); in the assay with RPE-Neo or RPE-MYC cells) was 1 to 10 µM each time.
